Experimental data taken from ChEMBL document CHEMBL5143597, “Design and synthesis of novel spirocyclic carboxylic acids as potent and orally bioavailable DGAT1 inhibitors and their biological evaluation” (Bioorg Med Chem Lett, 2022).

How the values were obtained:
[1] = Drug distribution in Wistar rat adipose tissue 10 mg/kg, po and measured at 8 hrs post dose by LC-MS/MS analysis; type: ADME, organism-based; conditions: read-out: Ct
[2] = Drug distribution in Wistar rat adipose tissue 10 mg/kg, po and measured at 1 hrs post dose by LC-MS/MS analysis; type: ADME, organism-based; conditions: read-out: Ct
[3] = Drug distribution in Wistar rat plasma 10 mg/kg, po and measured at 8 hrs post dose by LC-MS/MS analysis; type: ADME, organism-based
[4] = Metabolic stability in rat liver microsomes assessed as parent compound remaining at 1 uM and measured at 30 mins by LC-MS/MS analysis; type: ADME, Microsome; conditions: read-out: Stability
[5] = Metabolic stability in mouse liver microsomes assessed as parent compound remaining at 1 uM and measured at 30 mins by LC-MS/MS analysis; type: ADME, Microsome; conditions: read-out: Stability
[6] = Metabolic stability in human liver microsomes assessed as parent compound remaining at 1 uM and measured at 30 mins by LC-MS/MS analysis; type: ADME, Microsome; conditions: read-out: Stability
hERG (KCNH2) = hERG (KCNH2) (Homo sapiens, UniProt Q12809); assay: Displacement of [3H]astemizole from human ERG expressed in HEK293 cell membrane at 30 uM for 2 hrs by Radiometric displacement assay; type: toxicity; conditions: HEK293 cell membranes that express hERG, probe [3H]astemizole
Chain of hERG (KCNH2) (Q12809 whole entry): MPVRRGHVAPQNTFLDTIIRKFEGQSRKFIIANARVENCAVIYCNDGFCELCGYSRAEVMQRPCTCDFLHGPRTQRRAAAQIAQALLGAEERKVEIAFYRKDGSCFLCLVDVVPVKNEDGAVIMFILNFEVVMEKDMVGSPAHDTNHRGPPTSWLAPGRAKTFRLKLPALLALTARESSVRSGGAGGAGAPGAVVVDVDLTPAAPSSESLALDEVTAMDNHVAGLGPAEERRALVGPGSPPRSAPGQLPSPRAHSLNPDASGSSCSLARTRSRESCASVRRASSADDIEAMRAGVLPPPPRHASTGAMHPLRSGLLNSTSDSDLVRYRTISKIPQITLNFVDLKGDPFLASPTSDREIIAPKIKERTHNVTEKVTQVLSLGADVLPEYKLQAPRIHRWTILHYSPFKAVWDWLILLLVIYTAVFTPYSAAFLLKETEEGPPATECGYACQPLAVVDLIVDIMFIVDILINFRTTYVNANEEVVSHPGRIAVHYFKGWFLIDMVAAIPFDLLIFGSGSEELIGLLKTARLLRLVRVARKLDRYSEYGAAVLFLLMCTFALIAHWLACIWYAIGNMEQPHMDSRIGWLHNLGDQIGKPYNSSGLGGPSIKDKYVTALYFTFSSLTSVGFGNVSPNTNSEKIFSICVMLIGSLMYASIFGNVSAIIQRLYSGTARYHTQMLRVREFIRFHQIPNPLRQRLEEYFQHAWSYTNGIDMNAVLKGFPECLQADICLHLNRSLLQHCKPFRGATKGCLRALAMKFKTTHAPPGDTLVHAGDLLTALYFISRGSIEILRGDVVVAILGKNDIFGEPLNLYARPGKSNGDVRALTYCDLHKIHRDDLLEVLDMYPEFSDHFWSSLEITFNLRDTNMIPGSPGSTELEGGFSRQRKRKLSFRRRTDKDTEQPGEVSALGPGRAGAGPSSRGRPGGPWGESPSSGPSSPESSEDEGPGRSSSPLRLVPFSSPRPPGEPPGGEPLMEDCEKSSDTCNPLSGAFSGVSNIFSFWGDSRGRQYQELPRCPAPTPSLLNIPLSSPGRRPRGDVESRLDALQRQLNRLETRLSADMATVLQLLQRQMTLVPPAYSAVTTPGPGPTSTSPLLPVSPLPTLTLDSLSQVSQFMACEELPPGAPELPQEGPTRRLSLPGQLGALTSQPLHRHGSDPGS

[7] = Plasma protein binding in rat; type: ADME, cell-free; conditions: read-out: PPB
[8] = Plasma protein binding in mouse; type: ADME, cell-free; conditions: read-out: PPB (converted)
[9] = Apparent permeability across apical to basolateral side in MDCK cells at 2.5 uM for 90 mins; type: ADME, cell-based, Canis lupus familiaris; conditions: dog
[10] = Volume of distribution at steady state in C57BL/6 mouse at 5 mg/kg, iv or 10 mg/kg, po and measured up to 24 hrs by LC-MS/MS analysis; type: ADME, organism-based; conditions: in vivo, read-out: Vdss
[11] = Clearance in C57BL/6 mouse at 5 mg/kg, iv r 10 mg/kg, po and measured up to 24 hrs by LC-MS/MS analysis; type: ADME, organism-based; conditions: in vivo
[12] = AUC in C57BL/6 mouse at 5 mg/kg, iv or 10 mg/kg, po and measured up to 24 hrs by LC-MS/MS analysis; type: ADME, organism-based; parameters: time < 24 hrs, dose 5 mg/kg, route iv; conditions: in vivo
[13] = Cmax in C57BL/6 mouse at 5 mg/kg, iv or 10 mg/kg, po and measured up to 24 hrs by LC-MS/MS analysis; type: ADME, organism-based; parameters: dose 5 mg/kg, time < 24 hrs, route iv; conditions: in vivo
[14] = Tmax in C57BL/6 mouse at 5 mg/kg, iv or 10 mg/kg, po and measured up to 24 hrs by LC-MS/MS analysis; type: ADME, organism-based; conditions: in vivo
[15] = Half life in C57BL/6 mouse at 5 mg/kg, iv or 10 mg/kg, po and measured up to 24 hrs by LC-MS/MS analysis; type: ADME, organism-based; conditions: in vivo
[16] = Volume of distribution at steady state in Wistar rat at 3 mg/kg, iv or 10 mg/kg, po and measured up to 24 hrs by LC-MS/MS analysis; type: ADME, organism-based; conditions: in vivo, read-out: Vdss
[17] = Clearance in Wistar rat at 3 mg/kg, iv or 10 mg/kg, po and measured up to 24 hrs by LC-MS/MS analysis; type: ADME, organism-based; conditions: in vivo
[18] = AUC in Wistar rat at 3 mg/kg, iv or 10 mg/kg, po and measured up to 24 hrs by LC-MS/MS analysis; type: ADME, organism-based; parameters: dose 3 mg/kg, time < 24 hrs, route iv; conditions: in vivo
[19] = Cmax in Wistar rat at 3 mg/kg, iv or 10 mg/kg, po and measured up to 24 hrs by LC-MS/MS analysis; type: ADME, organism-based; parameters: dose 3 mg/kg, time < 24 hrs, route iv; conditions: in vivo
[20] = Tmax in Wistar rat at 3 mg/kg, iv or 10 mg/kg, po and measured up to 24 hrs by LC-MS/MS analysis; type: ADME, organism-based; conditions: in vivo
[21] = Half life in Wistar rat at 3 mg/kg, iv or 10 mg/kg, po and measured up to 24 hrs by LC-MS/MS analysis; type: ADME, organism-based; conditions: in vivo
[22] = Oral bioavailability in Wistar rat at 10 mg/kg or 3 mg/kg, iv and measured up to 24 hrs by LC-MS/MS analysis; type: ADME, organism-based; conditions: in vivo
[23] = Oral bioavailability in C57BL/6 mouse 10 mg/kg or 5 mg/kg, iv and measured up to 24 hrs by LC-MS/MS analysis; type: ADME, organism-based; conditions: in vivo
[24] = Drug distribution in C57BL/6 mouse plasma 10 mg/kg, po and measured at 1 hrs post dose by LC-MS/MS analysis; type: ADME, organism-based
[25] = Drug distribution in C57BL/6 mouse plasma 10 mg/kg, po and measured at 2 hrs post dose by LC-MS/MS analysis; type: ADME, organism-based
[26] = Drug distribution in C57BL/6 mouse plasma 10 mg/kg, po and measured at 8 hrs post dose by LC-MS/MS analysis; type: ADME, organism-based
[27] = Drug distribution in C57BL/6 mouse adipose tissue 10 mg/kg, po and measured at 1 hrs post dose by LC-MS/MS analysis; type: ADME, organism-based; conditions: read-out: Ct
[28] = Drug distribution in C57BL/6 mouse adipose tissue 10 mg/kg, po and measured at 2 hrs post dose by LC-MS/MS analysis; type: ADME, organism-based; conditions: read-out: Ct
[29] = Drug distribution in C57BL/6 mouse adipose tissue 10 mg/kg, po and measured at 8 hrs post dose by LC-MS/MS analysis; type: ADME, organism-based; conditions: read-out: Ct
[30] = Drug distribution in C57BL/6 mouse liver 10 mg/kg, po and measured at 1 hrs post dose by LC-MS/MS analysis; type: ADME, organism-based; conditions: read-out: Ct
[31] = Drug distribution in C57BL/6 mouse liver 10 mg/kg, po and measured at 2 hrs post dose by LC-MS/MS analysis; type: ADME, organism-based; conditions: read-out: Ct
[32] = Drug distribution in C57BL/6 mouse liver 10 mg/kg, po and measured at 8 hrs post dose by LC-MS/MS analysis; type: ADME, organism-based; conditions: read-out: Ct
[33] = Drug distribution in C57BL/6 mouse skeletal muscle 10 mg/kg, po and measured at 1 hrs post dose by LC-MS/MS analysis; type: ADME, organism-based, Skeletal muscle tissue; conditions: read-out: Ct
[34] = Drug distribution in C57BL/6 mouse skeletal muscle 10 mg/kg, po and measured at 2 hrs post dose by LC-MS/MS analysis; type: ADME, organism-based, Skeletal muscle tissue; conditions: read-out: Ct
[35] = Drug distribution in C57BL/6 mouse skeletal muscle 10 mg/kg, po and measured at 8 hrs post dose by LC-MS/MS analysis; type: ADME, organism-based, Skeletal muscle tissue; conditions: read-out: Ct
[36] = Drug distribution in C57BL/6 mouse brain 10 mg/kg, po and measured at 1 hrs post dose by LC-MS/MS analysis; type: ADME, organism-based; conditions: read-out: Ct
[37] = Drug distribution in C57BL/6 mouse brain 10 mg/kg, po and measured at 2 hrs post dose by LC-MS/MS analysis; type: ADME, organism-based; conditions: read-out: Ct
[38] = Drug distribution in C57BL/6 mouse brain 10 mg/kg, po and measured at 8 hrs post dose by LC-MS/MS analysis; type: ADME, organism-based; conditions: read-out: Ct
[39] = Drug distribution in Wistar rat plasma 10 mg/kg, po and measured at 1 hrs post dose by LC-MS/MS analysis; type: ADME, organism-based
[40] = Drug distribution in Wistar rat plasma 10 mg/kg, po and measured at 2 hrs post dose by LC-MS/MS analysis; type: ADME, organism-based
[41] = Drug distribution in Wistar rat adipose tissue 10 mg/kg, po and measured at 2 hrs post dose by LC-MS/MS analysis; type: ADME, organism-based; conditions: read-out: Ct
[42] = Drug distribution in Wistar rat liver 10 mg/kg, po and measured at 1 hrs post dose by LC-MS/MS analysis; type: ADME, organism-based; conditions: read-out: Ct
[43] = Drug distribution in Wistar rat liver 10 mg/kg, po and measured at 2 hrs post dose by LC-MS/MS analysis; type: ADME, organism-based; conditions: read-out: Ct
[44] = Drug distribution in Wistar rat liver 10 mg/kg, po and measured at 8 hrs post dose by LC-MS/MS analysis; type: ADME, organism-based; conditions: read-out: Ct

concentration at 8 h [1]: 340 nM | concentration at 1 h [2]: 1890 nM | concentration at 8 h [3]: 4000 nM | remaining at 0.5 h, 1 µM [4]: 92% | remaining at 0.5 h, 1 µM [5]: 94% | remaining at 0.5 h, 1 µM [6]: 89% | fraction unbound [7]: 0.01 | fraction unbound [8]: 0.02 | Papp A→B at 1.5 h, 2.5 µM [9]: 2.8 ×10⁻⁶ cm/s | Vd [10]: 2.5 L/kg | clearance [11]: 58 mL/min/kg | AUC at 24 h [12]: 2.9 µM·h | Cmax [13]: 4500 nM | Tmax [14]: 30 min | half-life [15]: 60 min | Vd [16]: 0.3 L/kg | clearance [17]: 2.3 mL/min/kg | AUC at 24 h [18]: 47 µM·h | Cmax [19]: 57000 nM | Tmax [20]: 30 min | half-life [21]: 210 min | bioavailability [22]: 92% | bioavailability [23]: 97% | concentration at 1 h [24]: 1900 nM | concentration at 2 h [25]: 1160 nM | concentration at 8 h [26]: 40 nM | concentration at 1 h [27]: 270 nM | concentration at 2 h [28]: 140 nM | concentration at 8 h [29]: 80 nM | concentration at 1 h [30]: 153000 nM | concentration at 2 h [31]: 96000 nM | concentration at 8 h [32]: 5300 nM | concentration at 1 h [33]: 170 nM | concentration at 2 h [34]: 180 nM | concentration at 8 h [35]: 20 nM | concentration at 1 h [36]: 360 nM | concentration at 2 h [37]: 260 nM | concentration at 8 h [38]: 110 nM | concentration at 1 h [39]: 37000 nM | concentration at 2 h [40]: 47000 nM | concentration at 2 h [41]: 2500 nM | concentration at 1 h [42]: 105000 nM | concentration at 2 h [43]: 72000 nM | concentration at 8 h [44]: 32000 nM
Structure (SMILES): O=C(Nc1ccc(N2CCC3(CC2)CC(C(=O)O)C3)nc1)c1nnc(Nc2ccc(F)c(F)c2)o1
inhibition at 2 h, 30 µM (hERG (KCNH2)): 22%
